# Source: publication PMC4736406 (Stem Cells International, 2016)
# Counter-ions that a name gives are not always drawn.
# Experiments:
# [1] = plasma; no reference given; read-out: C max (maximum plasma concentration of the drug); cited from earlier work
# [2] = tested on: hiPSC derived hepatocytes (hiPS-HEP);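 also: hiPS-HEP obtained from ChiPSC4 through definitive endoderm under serum- and feeder-free conditions in 96-well plates, fluorescence imaging, each concentration run in triplicate wells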
# Description: (§1) For hepatic differentiation, a serum- and feeder-free procedure recapitulating liver development was applied. First, ChiPSC4 was guided to differentiate into definitive endoderm using the Cellartis DE Diff Kit (Takara Bio Europe AB; Y30030), containing complete media and coating solution for differentiation of hPSC to DE cells in 2D culture. On day 7 of differentiation, the DE cells were enzymatically dissociated and reseeded into fibronectin coated 96-well plates. […] Wells of 96-well plates were coated by adding fibronectin solution 0.15 mL per cm^2 to the wells and let to incubate for >60 min at RT. […] Next, the cell suspension was centrifuged for 5 min at 300 g at RT, the supernatant was removed, and the cell pellet was resuspended in warm Hepatocyte Thawing and Seeding medium (Cellartis Hepatocyte Diff Kit; Takara Bio Europe AB; Y30050). Prior to seeding of cells, excess coating was removed and 150 K DE cells/cm^2 were seeded in the 96-well plates. On days 9 and 11 (counted from the start of ChiPSC4 differentiation), medium was changed using Hepatocyte Progenitor Medium (Cellartis Hepatocyte Diff Kit).
# (§2) The cells were treated for 48 h with compounds at varying concentrations (half log dilution from the top concentration). […] The stock solutions were prepared in DMSO or water and were diluted in culture medium to obtain the final concentration. Each concentration was assayed in triplicate wells. Vehicle control wells were included and the final DMSO concentration in the medium never exceeded 0.5% (v/v). Each batch had two plates each for fixed and live assays.
# (§3) LipidTOX Green neutral lipids and LipidTox Red phospholipidosis were used for identifying neutral lipid and phospholipid formation within the cells. MMP changes (Δψm) within the cell were measured using MitoTracker orange. Carboxy-H2DCFDA (6-carboxy-2′,7′-dichlorodihydrofluorescein diacetate) an acetylated fluorescent was used for measuring ROS. And finally, TOTO-3 was used for assessing PMP.
# (§4) The fluorescence probes were grouped into two sets according to their optical compatibility and requirement of fixed or live material. […] The fluorescent probes for neutral lipids and phospholipids required the cells to be fixed and were assigned to the fixed assay. The probes MitoTracker orange, carboxy-H2DCFDA, and TOTO-3 were assigned to the live assay.
# (§5) Following compound incubation, probes were administered to the cultures of the live assay. […] After incubation for 45 min at optimal cell culture conditions, the cells were changed to phenol red (PR) free medium for live cell imaging. For fixed assay, LipidTox Red probe was added with the compounds, and after 48 h the cells were fixed in 4% PFA supplemented with 1X Hoechst stain for 30 min at room temperature. Subsequently, cells were washed with PBS^+/+ and 1X LipidTOX Green stain diluted in PBS^+/+ was incubated with the cells for 30 min at room temperature. The plates were imaged without removing the buffer with probe.
# (§6) The cells were imaged using an Olympus ScanR system. Prior to image acquisition, the heating system and CO2 gas flow were started to ensure optimal conditions in the ScanR chamber for live cell analysis. The incubator was set to 37°C with 5% CO2 and relative humidity of 90%. […] 20X long distance objective with NA 0.45 was used to image distinct fluorescence channels. In order to cover the entire well and also to capture maximum cell events sixteen fields per well (4 × 4 tile grid spread equally) were imaged. The channel exposure time for LipidTOX Green, LipidTOX Red, MitoTracker orange, and carboxy-H2DCFHDA were set based on the fluorescence of the negative control wells and were set constant within each plate. Exposure time for Hoechst and TOTO-3 was set in the range of 1–10 ms depending on cellular fluorescence intensity.
# (§7) The acquired images were analyzed using ScanR analysis program from Olympus.
# [3] = tested on: HepG2 cells; assay: Image based high content analysis (HCA), fixed and live assays, in HepG2
# Description: Briefly, the cells were grown in DMEM supplemented with 10% heat inactivated FBS, 1% penicillin-streptomycin (PEST), 1% sodium pyruvate, and 1% nonessential amino acids. Cells were passaged at 1 : 8 or 1 : 6 every 3-4 days when they reach 75–80% confluence. Seeding density was optimized for HCA application to ensure that the cells were in a monolayer (5000 cells per well in 96-well plates) for precise imaging. The cells were grown for 48 h to attach and stabilize. The experiments performed with HepG2 cells were designed to ensure that each assay was performed with cells in a similar growth phase.
# Each concentration was assayed in triplicate wells. […] The experimental process is illustrated in Figure 2.
# And finally, TOTO-3 was used for assessing PMP.
# The cells were imaged using an Olympus ScanR system.
# All other fluorescence signals were considered as subobjects.
# [4] = tested on: hiPSC derived hepatocytes (hiPS-HEP); assay: Image based high content analysis (HCA), fixed and live assays, in hiPSC derived hepatocytes;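 also: hiPS-HEP obtained from ChiPSC4 through definitive endoderm under serum- and feeder-free conditions in 96-well plates, fluorescence imaging, each concentration run in triplicate wells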
# Description: as §1, §2, §3, §4, §5, §6, §7
# [5] = hiPSC derived hepatocytes, at concentrations higher than 100 μM, similar to control up to 100 μM
structure (smiles),measurement,setting,value
"CN(C)[C@@H]1C(O)=C(C(N)=O)C(=O)[C@@]2(O)C(O)=C3C(=O)c4c(O)cccc4[C@@](C)(O)[C@H]3C[C@@H]12 [Tetracycline, tetracycline hydrochloride]",Cmax,[1],14.2 µM
same,Cytotoxic effects,[2],minimal cytotoxic effects
same,Phospholipid parameters / accumulation of phospholipids,[2],not detected
same,Significant changes in PMP,[2],did not generate any significant changes
same,Significant changes on MMP,[2],not detected
same,Concentration at which increase in lipid accumulation / lipid droplets was observed,"[2]; human, 48 h",32 µM
same,Concentration at which mitochondrial membrane potential (MMP) increased,"[2]; human, 48 h",32 µM
same,Concentration at which nuclear changes were evident (nuclear intensity and area),"[2]; human, 48 h",320 µM
same,Concentration at which oxidative stress increased,"[2]; human, 48 h",100 µM
same,"MEC, ROS mean intensity","[2]; human, 48 h",316 µM
same,"MEC, nuclear changes area (NC, A)","[2]; human, 48 h",316 µM
same,"MEC, steatosis droplet count (S, C)","[2]; human, 48 h",316 µM
same,"MEC, steatosis mean intensity (S, MI)","[2]; human, 48 h",1000 µM
same,"MEC, viability cell count (V, CC)","[2]; human, 48 h",1000 µM
same,"Minimal effective concentration (MEC), viability cell count (V, CC)","[2]; human, 48 h",1000 µM
same,Significant changes on MMP,[3]; HepG2,not detected
same,IC50/EC50 Nucleus Area,"[3]; HepG2, fixed assay, 48 h",464 µM
same,IC50/EC50 Nucleus Cell count,"[3]; HepG2, fixed assay, 48 h",558 µM
same,IC50/EC50 Nucleus MI,"[3]; HepG2, fixed assay, 48 h",348 µM
same,IC50/EC50 Steatosis Area,"[3]; HepG2, fixed assay, 48 h",287 µM
same,IC50/EC50 Steatosis Count,"[3]; HepG2, fixed assay, 48 h",36.3 µM
same,IC50/EC50 Steatosis MI,"[3]; HepG2, fixed assay, 48 h",361 µM
same,IC50/EC50 MMP MI,"[3]; HepG2, live assay, 48 h",265 µM
same,IC50/EC50 Nucleus Area,"[3]; HepG2, live assay, 48 h",336 µM
same,IC50/EC50 Nucleus Cell count,"[3]; HepG2, live assay, 48 h",836 µM
same,IC50/EC50 Nucleus MI,"[3]; HepG2, live assay, 48 h",959 µM
same,IC50/EC50 ROS MI,"[3]; HepG2, live assay, 48 h",1149 µM
same,"MEC, PMP mean intensity","[3]; human, 48 h",1000 µM
same,"MEC, ROS mean intensity","[3]; human, 48 h",1000 µM
same,"MEC, nuclear changes area (NC, A)","[3]; human, 48 h",316 µM
same,"MEC, phospholipidosis mean intensity (PL, MI)","[3]; human, 48 h",100 µM
same,"MEC, steatosis droplet count (S, C)","[3]; human, 48 h",100 µM
same,"MEC, steatosis mean intensity (S, MI)","[3]; human, 48 h",100 µM
same,"Minimal effective concentration (MEC), viability cell count (V, CC)","[3]; human, 48 h",316 µM
same,IC50/EC50 Nucleus Area,"[4]; hiPS-HEP, fixed assay, 48 h",105 µM
same,IC50/EC50 Nucleus Cell count,"[4]; hiPS-HEP, fixed assay, 48 h",432 µM
same,IC50/EC50 Nucleus MI,"[4]; hiPS-HEP, fixed assay, 48 h",211 µM
same,IC50/EC50 Steatosis Area,"[4]; hiPS-HEP, fixed assay, 48 h",213 µM
same,IC50/EC50 Steatosis Count,"[4]; hiPS-HEP, fixed assay, 48 h",184 µM
same,IC50/EC50 Steatosis MI,"[4]; hiPS-HEP, fixed assay, 48 h",418 µM
same,IC50/EC50 Nucleus Area,"[4]; hiPS-HEP, live assay, 48 h",211 µM
same,IC50/EC50 Nucleus Cell count,"[4]; hiPS-HEP, live assay, 48 h",243 µM
same,IC50/EC50 Nucleus MI,"[4]; hiPS-HEP, live assay, 48 h",380 µM
same,IC50/EC50 ROS MI,"[4]; hiPS-HEP, live assay, 48 h",160 µM
same,Increase of mean nuclear intensity,[4]; [5],12%
same,Increase of nuclear area,[4]; [5],14%
same,Increase of PMP compared to the control,"[4]; hiPSC derived hepatocytes, at the highest concentration",8%
"C[C@H]1c2cccc(O)c2C(=O)C2=C(O)[C@]3(O)C(=O)C(C(N)=O)=C(O)[C@@H](N(C)C)[C@@H]3[C@@H](O)[C@@H]21 [Doxycycline, doxycycline]",Cmax,[1],8.8 µM
same,Effect on mitochondrial membrane,[2],concentration dependent depolarization of the mitochondrial membrane
same,Phospholipid parameters / accumulation of phospholipids,[2],no changes were detected
same,ROS levels,[2],unaffected
same,Concentration at which increase in lipid accumulation / lipid droplets was observed,"[2]; human, 48 h",320 µM
same,"MEC, MMP mean intensity","[2]; human, 48 h",1000 µM
same,"MEC, PMP mean intensity","[2]; human, 48 h",31.6 µM
same,"MEC, nuclear changes mean intensity (NC, MI)","[2]; human, 48 h",100 µM
same,"MEC, steatosis droplet count (S, C)","[2]; human, 48 h",316 µM
same,"MEC, steatosis mean intensity (S, MI)","[2]; human, 48 h",1000 µM
same,"MEC, viability cell count (V, CC)","[2]; human, 48 h",1000 µM
same,"Minimal effective concentration (MEC), viability cell count (V, CC)","[2]; human, 48 h",100 µM
same,SRI (steatotic risk index) Lipid,"[2]; human, 48 h",36
same,SRI (steatotic risk index) ROS,"[2]; human, 48 h",>114
same,TR (toxicity risk),"[2]; human, 48 h",3.6
same,IC50/EC50 Nucleus Cell count,"[3]; HepG2, fixed assay, 48 h",165 µM
same,IC50/EC50 Nucleus MI,"[3]; HepG2, fixed assay, 48 h",892 µM
same,IC50/EC50 Steatosis Area,"[3]; HepG2, fixed assay, 48 h",398 µM
same,IC50/EC50 Steatosis Count,"[3]; HepG2, fixed assay, 48 h",260 µM
same,IC50/EC50 MMP MI,"[3]; HepG2, live assay, 48 h",622 µM
same,IC50/EC50 Nucleus Cell count,"[3]; HepG2, live assay, 48 h",120.3 µM
same,IC50/EC50 Nucleus MI,"[3]; HepG2, live assay, 48 h",153 µM
same,IC50/EC50 ROS MI,"[3]; HepG2, live assay, 48 h",115 µM
same,"MEC, MMP mean intensity","[3]; human, 48 h",1000 µM
same,"MEC, PMP mean intensity","[3]; human, 48 h",1000 µM
same,"MEC, ROS mean intensity","[3]; human, 48 h",316 µM
same,"MEC, nuclear changes area (NC, A)","[3]; human, 48 h",1000 µM
same,"MEC, nuclear changes mean intensity (NC, MI)","[3]; human, 48 h",1000 µM
same,"MEC, steatosis droplet count (S, C)","[3]; human, 48 h",316 µM
same,"MEC, steatosis mean intensity (S, MI)","[3]; human, 48 h",1000 µM
same,"MEC, viability cell count (V, CC)","[3]; human, 48 h",316 µM
same,"Minimal effective concentration (MEC), viability cell count (V, CC)","[3]; human, 48 h",100 µM
same,SRI (steatotic risk index) Lipid,"[3]; human, 48 h",36
same,SRI (steatotic risk index) ROS,"[3]; human, 48 h",36
same,TR (toxicity risk),"[3]; human, 48 h",11.4
same,IC50/EC50 Nucleus Area,"[4]; hiPS-HEP, fixed assay, 48 h",96.1 µM
same,IC50/EC50 Nucleus Cell count,"[4]; hiPS-HEP, fixed assay, 48 h",107 µM
same,IC50/EC50 Nucleus MI,"[4]; hiPS-HEP, fixed assay, 48 h",47.2 µM
same,IC50/EC50 Steatosis Count,"[4]; hiPS-HEP, fixed assay, 48 h",115 µM
same,IC50/EC50 Steatosis MI,"[4]; hiPS-HEP, fixed assay, 48 h",441 µM
same,IC50/EC50 MMP MI,"[4]; hiPS-HEP, live assay, 48 h",644 µM
same,IC50/EC50 Nucleus Area,"[4]; hiPS-HEP, live assay, 48 h",204.3 µM
same,IC50/EC50 Nucleus Cell count,"[4]; hiPS-HEP, live assay, 48 h",69.4 µM
same,IC50/EC50 Nucleus MI,"[4]; hiPS-HEP, live assay, 48 h",120 µM
same,IC50/EC50 PMP MI,"[4]; hiPS-HEP, live assay, 48 h",26.9 µM
same,IC50/EC50 ROS MI,"[4]; hiPS-HEP, live assay, 48 h",10.5 µM
same,Concentration from which effects on plasma membrane permeability (PMP) start,[4]; hiPSC derived hepatocytes,32 µM
same,Cell count reduction,"[4]; hiPSC derived hepatocytes, at 100 μM",50%
